tested on: MCF7; test: Potency index, ratio of andrographolide IC50 to test compound IC50 for cytotoxicity against human MCF7 cells; format: functional

| SMILES | Ratio IC50 |
| --- | --- |
| C=C1[C@@H](OC(C)=O)C[C@@H]2[C@](C)(CO[Si](C)(C)C(C)(C)C)[C@H](OC(C)=O)CC[C@@]2(C)[C@@H]1C[C@@H](Nc1ccc(C(=O)O)cc1)C1=CCOC1=O | 7 |
| C=C1[C@@H](OC(C)=O)C[C@@H]2[C@](C)(CO[Si](C)(C)C(C)(C)C)[C@H](OC(C)=O)CC[C@@]2(C)[C@@H]1C[C@@H](Nc1ccccc1F)C1=CCOC1=O | 7 |
| C=C1[C@@H](OC(C)=O)C[C@@H]2[C@](C)(CO[Si](C)(C)C(C)(C)C)[C@H](OC(C)=O)CC[C@@]2(C)[C@@H]1C[C@@H](Nc1cccc(F)c1)C1=CCOC1=O | 7 |

tested on: not listed separately; test: Cytotoxicity against rat ASK cells assessed as reduction in cell viability by SRB assay; format: functional, cell-based

| SMILES | IC50 [µM] |
| --- | --- |
| C=C1[C@@H](OC(C)=O)C[C@@H]2[C@](C)(COC=O)[C@H](OC(C)=O)CC[C@@]2(C)[C@@H]1C[C@@H](Nc1ccc(O)cc1)C1=CCOC1=O | 24.2 |
| C=C1[C@@H](OC(C)=O)C[C@@H]2[C@](C)(COC=O)[C@H](OC(C)=O)CC[C@@]2(C)[C@@H]1C[C@H](C1=CCOC1=O)N1CCOCC1 | 34.4 |
| C=C1[C@@H](C/C=C2/C(=O)OC[C@H]2OC(C)=O)[C@]2(C)CC[C@@H](OC(C)=O)[C@@](C)(CO[Si](C)(C)C(C)(C)C)[C@H]2C[C@@H]1O | 5.97 |
| C=C1[C@@H](OC(C)=O)C[C@@H]2[C@](C)(CO[Si](C)(C)C(C)(C)C)[C@H](OC(C)=O)CC[C@@]2(C)[C@@H]1C[C@@H](Nc1ccc(C(=O)O)cc1)C1=CCOC1=O | 4.31 |
| C=C1[C@@H](OC(C)=O)C[C@@H]2[C@](C)(CO[Si](C)(C)C(C)(C)C)[C@H](OC(C)=O)CC[C@@]2(C)[C@@H]1C[C@@H](Nc1ccccc1F)C1=CCOC1=O | 3.69 |
| C=C1[C@@H](OC(C)=O)C[C@@H]2[C@](C)(CO[Si](C)(C)C(C)(C)C)[C@H](OC(C)=O)CC[C@@]2(C)[C@@H]1C[C@@H](Nc1cccc(F)c1)C1=CCOC1=O | 3.7 |

tested on: HT-29; test: Cytotoxicity against human HT-29 cells assessed as reduction in cell viability by SRB assay; format: functional, cell-based

| SMILES | IC50 [µM] |
| --- | --- |
| C=C1[C@@H](OC(C)=O)C[C@@H]2[C@](C)(COC=O)[C@H](OC(C)=O)CC[C@@]2(C)[C@@H]1C[C@@H](Nc1ccc(O)cc1)C1=CCOC1=O | 13.4 |
| C=C1[C@@H](OC(C)=O)C[C@@H]2[C@](C)(COC=O)[C@H](OC(C)=O)CC[C@@]2(C)[C@@H]1C[C@H](C1=CCOC1=O)N1CCOCC1 | 35.1 |
| C=C1[C@@H](C/C=C2/C(=O)OC[C@H]2OC(C)=O)[C@]2(C)CC[C@@H](OC(C)=O)[C@@](C)(CO[Si](C)(C)C(C)(C)C)[C@H]2C[C@@H]1O | 9.31 |
| C=C1[C@@H](OC(C)=O)C[C@@H]2[C@](C)(CO[Si](C)(C)C(C)(C)C)[C@H](OC(C)=O)CC[C@@]2(C)[C@@H]1C[C@@H](Nc1ccc(C(=O)O)cc1)C1=CCOC1=O | 4.63 |
| C=C1[C@@H](OC(C)=O)C[C@@H]2[C@](C)(CO[Si](C)(C)C(C)(C)C)[C@H](OC(C)=O)CC[C@@]2(C)[C@@H]1C[C@@H](Nc1ccccc1F)C1=CCOC1=O | 3.71 |
| C=C1[C@@H](OC(C)=O)C[C@@H]2[C@](C)(CO[Si](C)(C)C(C)(C)C)[C@H](OC(C)=O)CC[C@@]2(C)[C@@H]1C[C@@H](Nc1cccc(F)c1)C1=CCOC1=O | 4.52 |

tested on: not listed separately; test: Cytotoxicity against human K213 cells assessed as reduction in cell viability by SRB assay; format: functional, cell-based

| SMILES | IC50 [µM] |
| --- | --- |
| C=C1[C@@H](OC(C)=O)C[C@@H]2[C@](C)(COC=O)[C@H](OC(C)=O)CC[C@@]2(C)[C@@H]1C[C@@H](Nc1ccc(O)cc1)C1=CCOC1=O | 27.1 |
| C=C1[C@@H](OC(C)=O)C[C@@H]2[C@](C)(COC=O)[C@H](OC(C)=O)CC[C@@]2(C)[C@@H]1C[C@H](C1=CCOC1=O)N1CCOCC1 | 31.7 |
| C=C1[C@@H](C/C=C2/C(=O)OC[C@H]2OC(C)=O)[C@]2(C)CC[C@@H](OC(C)=O)[C@@](C)(CO[Si](C)(C)C(C)(C)C)[C@H]2C[C@@H]1O | 24 |
| C=C1[C@@H](OC(C)=O)C[C@@H]2[C@](C)(CO[Si](C)(C)C(C)(C)C)[C@H](OC(C)=O)CC[C@@]2(C)[C@@H]1C[C@@H](Nc1ccc(C(=O)O)cc1)C1=CCOC1=O | 6.75 |
| C=C1[C@@H](OC(C)=O)C[C@@H]2[C@](C)(CO[Si](C)(C)C(C)(C)C)[C@H](OC(C)=O)CC[C@@]2(C)[C@@H]1C[C@@H](Nc1ccccc1F)C1=CCOC1=O | 5.45 |
| C=C1[C@@H](OC(C)=O)C[C@@H]2[C@](C)(CO[Si](C)(C)C(C)(C)C)[C@H](OC(C)=O)CC[C@@]2(C)[C@@H]1C[C@@H](Nc1cccc(F)c1)C1=CCOC1=O | 5.28 |

tested on: KB; test: Cytotoxicity against human KB cells assessed as reduction in cell viability by SRB assay; format: functional, cell-based

| SMILES | IC50 [µM] |
| --- | --- |
| C=C1[C@@H](OC(C)=O)C[C@@H]2[C@](C)(COC=O)[C@H](OC(C)=O)CC[C@@]2(C)[C@@H]1C[C@@H](Nc1ccc(O)cc1)C1=CCOC1=O | 28.9 |
| C=C1[C@@H](OC(C)=O)C[C@@H]2[C@](C)(COC=O)[C@H](OC(C)=O)CC[C@@]2(C)[C@@H]1C[C@H](C1=CCOC1=O)N1CCOCC1 | > 50 |
| C=C1[C@@H](C/C=C2/C(=O)OC[C@H]2OC(C)=O)[C@]2(C)CC[C@@H](OC(C)=O)[C@@](C)(CO[Si](C)(C)C(C)(C)C)[C@H]2C[C@@H]1O | 9.79 |
| C=C1[C@@H](OC(C)=O)C[C@@H]2[C@](C)(CO[Si](C)(C)C(C)(C)C)[C@H](OC(C)=O)CC[C@@]2(C)[C@@H]1C[C@@H](Nc1ccc(C(=O)O)cc1)C1=CCOC1=O | 5.54 |
| C=C1[C@@H](OC(C)=O)C[C@@H]2[C@](C)(CO[Si](C)(C)C(C)(C)C)[C@H](OC(C)=O)CC[C@@]2(C)[C@@H]1C[C@@H](Nc1ccccc1F)C1=CCOC1=O | 4.74 |
| C=C1[C@@H](OC(C)=O)C[C@@H]2[C@](C)(CO[Si](C)(C)C(C)(C)C)[C@H](OC(C)=O)CC[C@@]2(C)[C@@H]1C[C@@H](Nc1cccc(F)c1)C1=CCOC1=O | 4.56 |

tested on: MCF7; test: Cytotoxicity against human MCF7 cells assessed as reduction in cell viability by SRB assay; format: functional, cell-based

| SMILES | IC50 [µM] |
| --- | --- |
| C=C1[C@@H](OC(C)=O)C[C@@H]2[C@](C)(COC=O)[C@H](OC(C)=O)CC[C@@]2(C)[C@@H]1C[C@@H](Nc1ccc(O)cc1)C1=CCOC1=O | 18.1 |
| C=C1[C@@H](OC(C)=O)C[C@@H]2[C@](C)(COC=O)[C@H](OC(C)=O)CC[C@@]2(C)[C@@H]1C[C@H](C1=CCOC1=O)N1CCOCC1 | 43.6 |
| C=C1[C@@H](C/C=C2/C(=O)OC[C@H]2OC(C)=O)[C@]2(C)CC[C@@H](OC(C)=O)[C@@](C)(CO[Si](C)(C)C(C)(C)C)[C@H]2C[C@@H]1O | 6.96 |
| C=C1[C@@H](OC(C)=O)C[C@@H]2[C@](C)(CO[Si](C)(C)C(C)(C)C)[C@H](OC(C)=O)CC[C@@]2(C)[C@@H]1C[C@@H](Nc1ccc(C(=O)O)cc1)C1=CCOC1=O | 3.99 |
| C=C1[C@@H](OC(C)=O)C[C@@H]2[C@](C)(CO[Si](C)(C)C(C)(C)C)[C@H](OC(C)=O)CC[C@@]2(C)[C@@H]1C[C@@H](Nc1ccccc1F)C1=CCOC1=O | 2.93 |
| C=C1[C@@H](OC(C)=O)C[C@@H]2[C@](C)(CO[Si](C)(C)C(C)(C)C)[C@H](OC(C)=O)CC[C@@]2(C)[C@@H]1C[C@@H](Nc1cccc(F)c1)C1=CCOC1=O | 3.82 |

tested on: A549; test: Cytotoxicity against human A549 cells assessed as reduction in cell viability by SRB assay; format: functional, cell-based

| SMILES | IC50 [µM] |
| --- | --- |
| C=C1[C@@H](OC(C)=O)C[C@@H]2[C@](C)(COC=O)[C@H](OC(C)=O)CC[C@@]2(C)[C@@H]1C[C@@H](Nc1ccc(O)cc1)C1=CCOC1=O | 29.1 |
| C=C1[C@@H](OC(C)=O)C[C@@H]2[C@](C)(COC=O)[C@H](OC(C)=O)CC[C@@]2(C)[C@@H]1C[C@H](C1=CCOC1=O)N1CCOCC1 | > 50 |
| C=C1[C@@H](C/C=C2/C(=O)OC[C@H]2OC(C)=O)[C@]2(C)CC[C@@H](OC(C)=O)[C@@](C)(CO[Si](C)(C)C(C)(C)C)[C@H]2C[C@@H]1O | 6.85 |
| C=C1[C@@H](OC(C)=O)C[C@@H]2[C@](C)(CO[Si](C)(C)C(C)(C)C)[C@H](OC(C)=O)CC[C@@]2(C)[C@@H]1C[C@@H](Nc1ccc(C(=O)O)cc1)C1=CCOC1=O | 4.21 |
| C=C1[C@@H](OC(C)=O)C[C@@H]2[C@](C)(CO[Si](C)(C)C(C)(C)C)[C@H](OC(C)=O)CC[C@@]2(C)[C@@H]1C[C@@H](Nc1ccccc1F)C1=CCOC1=O | 3.19 |
| C=C1[C@@H](OC(C)=O)C[C@@H]2[C@](C)(CO[Si](C)(C)C(C)(C)C)[C@H](OC(C)=O)CC[C@@]2(C)[C@@H]1C[C@@H](Nc1cccc(F)c1)C1=CCOC1=O | 4.06 |

tested on: not listed separately; test: Cytotoxicity against human K055 cells assessed as reduction in cell viability by SRB assay; format: functional, cell-based

| SMILES | IC50 [µM] |
| --- | --- |
| C=C1[C@@H](OC(C)=O)C[C@@H]2[C@](C)(COC=O)[C@H](OC(C)=O)CC[C@@]2(C)[C@@H]1C[C@@H](Nc1ccc(O)cc1)C1=CCOC1=O | 28.6 |
| C=C1[C@@H](OC(C)=O)C[C@@H]2[C@](C)(COC=O)[C@H](OC(C)=O)CC[C@@]2(C)[C@@H]1C[C@H](C1=CCOC1=O)N1CCOCC1 | 33.7 |
| C=C1[C@@H](C/C=C2/C(=O)OC[C@H]2OC(C)=O)[C@]2(C)CC[C@@H](OC(C)=O)[C@@](C)(CO[Si](C)(C)C(C)(C)C)[C@H]2C[C@@H]1O | 19.9 |
| C=C1[C@@H](OC(C)=O)C[C@@H]2[C@](C)(CO[Si](C)(C)C(C)(C)C)[C@H](OC(C)=O)CC[C@@]2(C)[C@@H]1C[C@@H](Nc1ccc(C(=O)O)cc1)C1=CCOC1=O | 4.88 |
| C=C1[C@@H](OC(C)=O)C[C@@H]2[C@](C)(CO[Si](C)(C)C(C)(C)C)[C@H](OC(C)=O)CC[C@@]2(C)[C@@H]1C[C@@H](Nc1ccccc1F)C1=CCOC1=O | 5.19 |
| C=C1[C@@H](OC(C)=O)C[C@@H]2[C@](C)(CO[Si](C)(C)C(C)(C)C)[C@H](OC(C)=O)CC[C@@]2(C)[C@@H]1C[C@@H](Nc1cccc(F)c1)C1=CCOC1=O | 5.41 |

tested on: not listed separately; test: Cytotoxicity against human P388 cells assessed as reduction in cell viability by SRB assay; format: functional, cell-based

| SMILES | IC50 [µM] |
| --- | --- |
| C=C1[C@@H](OC(C)=O)C[C@@H]2[C@](C)(COC=O)[C@H](OC(C)=O)CC[C@@]2(C)[C@@H]1C[C@@H](Nc1ccc(O)cc1)C1=CCOC1=O | 4.4 |
| C=C1[C@@H](OC(C)=O)C[C@@H]2[C@](C)(COC=O)[C@H](OC(C)=O)CC[C@@]2(C)[C@@H]1C[C@H](C1=CCOC1=O)N1CCOCC1 | 29.2 |
| C=C1[C@@H](C/C=C2/C(=O)OC[C@H]2OC(C)=O)[C@]2(C)CC[C@@H](OC(C)=O)[C@@](C)(CO[Si](C)(C)C(C)(C)C)[C@H]2C[C@@H]1O | 0.9 |
| C=C1[C@@H](OC(C)=O)C[C@@H]2[C@](C)(CO[Si](C)(C)C(C)(C)C)[C@H](OC(C)=O)CC[C@@]2(C)[C@@H]1C[C@@H](Nc1ccc(C(=O)O)cc1)C1=CCOC1=O | 4.18 |
| C=C1[C@@H](OC(C)=O)C[C@@H]2[C@](C)(CO[Si](C)(C)C(C)(C)C)[C@H](OC(C)=O)CC[C@@]2(C)[C@@H]1C[C@@H](Nc1ccccc1F)C1=CCOC1=O | 3.14 |
| C=C1[C@@H](OC(C)=O)C[C@@H]2[C@](C)(CO[Si](C)(C)C(C)(C)C)[C@H](OC(C)=O)CC[C@@]2(C)[C@@H]1C[C@@H](Nc1cccc(F)c1)C1=CCOC1=O | 2.81 |
